# Measurements taken from US10874745B2, “Antimicrobial peptides and methods of treating gram-negative pathogens: polar and non-polar face analogs” (priority 2017, dated 2020).
# Where “and” joins values, the source holds several entries; their conditions need not be identical. Identical values can stand only once. Like-named read-outs stand apart in the source and are kept apart here. Non-standard residues stand in square brackets, D forms with d. Residues, ends and D or L forms follow the SMILES beside them. dDab = NCC[C@@H](N)C(=O)O
# Tests used:
# Hemolytic activity = format: cell-based, human; conditions: 1% human erythrocytes (red blood cells), pH 7.4
# Method: (§1) Hemoglobin release was determined spectrophotometrically at 570 nm. […] […] […] With the peptides used in this study the inventors used the HC30/MIC ratio value to calculate the therapeutic index.
# human red blood cells = assay: Hemolytic activity; format: cell-based
# Method: as §1
# [1] = test system: clinical isolates of Pseudomonas aeruginosa; format: cell-based; conditions: geometric mean, 6 clinical isolates of P. aeruginosa
# Method: (§2) Measurement of Antimicrobial Activity (MIC): The minimal inhibitory concentration (MIC) is defined as the lowest peptide concentration that inhibited bacterial growth. MICs were measured by a standard microtiter dilution method in Mueller Hinton (MH) medium. Briefly, cells were grown overnight at 37° C. in MH broth and were diluted in the same medium. […] The plates were incubated at 37° C. for 24 h, and the MICs were determined.
# [2] = test system: A. baumannii clinical isolates; assay: MIC, microtiter dilution in Mueller Hinton medium; format: cell-based; conditions: geometric mean, 7 clinical isolates of A. baumannii
# From the text: (§3) Gram-Negative Bacterial Strains used in this Study: All the A. baumannii strains used in this study were 1) obtained from the collection of Dr. Anthony A. Campagnari at the University of Buffalo and originally isolated from different patients and organs/tissues (strain 649, blood; strain 689, groin; strain 759, gluteus; strain 884, axilla; strain 985, pleural fluid); 2) were purchased from the American Type Culture Collection (ATCC, Manassas, Va., USA) (strain ATCC 17978, fatal meningitis; and strain ATCC 19606, urine); 3) obtained from MERCK (M89941, M89949, M89951, M89952, M89953, M89955 and M89963). These seven A. baumannii strains were resistant to polymyxin B and polymyxin E (Colistin).
# as §2
# [3] = test system: A. baumannii strains resistant to Polymyxin B and Colistin; format: cell-based; conditions: geometric mean, 7 A. baumannii strains resistant to polymyxin B and colistin
# From the text: as §3, §2
# [4] = RP-HPLC retention time as measure of overall peptide hydrophobicity; format: physicochemical; conditions: Zorbax SB-C8, 0.5% B/min from 2% B, 30° C. (Table 3)
# From the text: Retention behavior in RP-HPLC is an excellent method to represent overall peptide hydrophobicity. Retention times of peptides are highly sensitive to the conformational status of the peptides upon interaction with the hydrophobic environment of the column matrix (Jiang, Z., et al., Chem. Biol. Drug Des. 2011; Chen, Y., et al., J. Peptide Research 2002, supra). The non-polar faces of amphipathic alpha-helical and amphipathic cyclic beta-sheet peptides represent a preferred binding domain for interaction with the hydrophobic matrix of the reversed-phase column (Zhou, N. E., et al., Peptide Research 1990, 3:8-20). In this study, the observed peptide hydrophobicity was determined by RP-HPLC retention time as described in the methods section and are relative hydrophobicities because they are dependent on the TFA concentration and organic solvent in the mobile phase, gradient rate, temperature, flow rate and the column used. […]
compound,measurement,setting,value
CC(=O)N[C@H](C)C(=O)N[C@H](CC(C)C)C(=O)N[C@H](CCCCN)C(=O)N[C@H](CCCCN)C(=O)N[C@H](CC(C)C)C(=O)N[C@H](CC(C)C)C(=O)N[C@H](CCCCN)C(=O)N[C@@H](C(=O)N[C@H](CC(C)C)C(=O)N[C@H](CO)C(=O)N[C@H](CCCCN)C(=O)N[C@H](C)C(=O)N[C@H](CCCN)C(=O)N[C@H](C)C(=O)N[C@H](C)C(=O)N[C@H](CCCN)C(=O)N[C@H](CC(C)C)C(=O)N[C@H](CCCCN)C(=O)N[C@@H](C(=O)N[C@H](CC(C)C)C(=O)N[C@H](CC(C)C)C(=O)N[C@H](CCCCN)C(=O)N[C@H](C)C(=O)N[C@H](CC(C)C)C(=O)N[C@H](CO)C(=O)N[C@H](CCCCN)C(N)=O)[C@H](C)O)[C@H](C)O [D41(Orn13/Orn16)],HC50 at 18 h,"Hemolytic activity; 50% hemolysis of human red blood cells after 18 hours at 37° C., read-out: HC50",34 µM and 96 µg/mL
same,HC50,human red blood cells; 50% hemolysis of human red blood cells after 18 hours at 37° C.,34.0 µM
same,MICGM,[1],1.0 µM
same,MICGM,[2],0.8 µM
same,MICGM,[3],0.6 µM
"CC(=O)N[C@H](CCCCN)C(=O)N[C@H](CC(C)C)C(=O)N[C@H](CCN)C(=O)N[C@H](CO)C(=O)N[C@H](CC(C)C)C(=O)N[C@H](CC(C)C)C(=O)N[C@H](CCN)C(=O)N[C@@H](C(=O)N[C@H](CC(C)C)C(=O)N[C@H](CO)C(=O)N[C@H](C)C(=O)N[C@H](C)C(=O)N[C@H](CCCCN)C(=O)N[C@H](CCN)C(=O)N[C@H](CCN)C(=O)N[C@H](CCCCN)C(=O)N[C@H](CC(C)C)C(=O)N[C@H](C)C(=O)N[C@@H](C(=O)N[C@H](CC(C)C)C(=O)N[C@H](CC(C)C)C(=O)N[C@H](CCN)C(=O)N[C@H](C)C(=O)N[C@H](CC(C)C)C(=O)N[C@H](CO)C(=O)N[C@H](CO)C(N)=O)[C@H](C)O)[C@H](C)O [Peptide D104, Ac-KL(Dbu)SLL(Dbu)TLSAAK(Dbu)(Dbu)KLATLL(Dbu)ALSS-amide] (Ac-[dK][dL][dDab][dS][dL][dL][dDab][dT][dL][dS][dA][dA][dK][dDab][dDab][dK][dL][dA][dT][dL][dL][dDab][dA][dL][dS][dS]-NH2)",HC50 at 18 h,Hemolytic activity; human,> 4000 µg/mL and > 1.49 mM
same,"Hemolysis of human red blood cells, in words",human red blood cells,basically no hemolysis
same,"tR, relative hydrophilicity/hydrophobicity",[4],59.2 min
